Assays:
[1] = target: amino acid substituted PPO enzyme R128A (Amaranthus tuberculatus, UniProt Q0NZW9, R128A); experiment: biochemical
[2] = target: amino acid substituted PPO enzyme R128L (Amaranthus tuberculatus, UniProt Q0NZW9, R128L); experiment: biochemical
[3] = target: amino acid substituted PPO enzyme dG210 (Amaranthus tuberculatus, UniProt Q0NZW9, DEL211-211, form not given); format: biochemical
[4] = target: amino acid substituted PPO enzyme L397D (Amaranthus tuberculatus, UniProt Q0NZW9, L397D); experiment: biochemical
[5] = target: amino acid substituted PPO enzyme L397N (Amaranthus tuberculatus, UniProt Q0NZW9, L397N); experiment: biochemical
[6] = target: amino acid substituted PPO enzyme F420M (Amaranthus tuberculatus, UniProt Q0NZW9, F420M); experiment: biochemical
[7] = target: amino acid substituted PPO enzyme F420I (Amaranthus tuberculatus, UniProt Q0NZW9, F420I); experiment: biochemical
[8] = target: amino acid substituted PPO enzyme F420L (Amaranthus tuberculatus, UniProt Q0NZW9, F420L); experiment: biochemical
[9] = target: amino acid substituted PPO enzyme F420V (Amaranthus tuberculatus, UniProt Q0NZW9, F420V); experiment: biochemical
[10] = target: amino acid substituted PPO enzyme R128A, F420M (Amaranthus tuberculatus, UniProt Q0NZW9, F420M/R128A); experiment: biochemical
[11] = target: amino acid substituted PPO enzyme R128A, F420I (Amaranthus tuberculatus, UniProt Q0NZW9, F420I/R128A); experiment: biochemical
[12] = target: amino acid substituted PPO enzyme R128A, F420L (Amaranthus tuberculatus, UniProt Q0NZW9, F420L/R128A); experiment: biochemical

## C#CCN1C(=O)C(F)(F)Oc2cc(F)c(-n3c(=O)n(C)c(=S)n(C)c3=O)cc21 [benzoxazinone 1.a.35]
[1]
  IC50: 0.14 nM
[2]
  IC50: 0.773 nM
[3]
  IC50: 2.12 nM
[4]
  IC50: 0.272 nM
[5]
  IC50: 0.235 nM
[6]
  IC50: 0.275 nM
[7]
  IC50: 0.495 nM
[8]
  IC50: 0.993 nM
[9]
  IC50: 2.45 nM
[10]
  IC50: 6.24 nM
[11]
  IC50: 19.8 nM
[12]
  IC50: 23.8 nM

From patent publication US12570994B2, “Plants having increased tolerance to herbicides” (BASF AGRO B.V., priority 2010, dated 2026)
